# Values of other authors as cited in patent EP1146906B1, “MUCOSAL DELIVERY SYSTEM” (Alk-Abelló A/S, priority 1999, dated 2000).
# Read-outs that look alike come from different tables or passages of the source.
# Details: compared to the parenteral equivalent
substance,measurement,setting,value
desmopression,bioavailability,after nasal administration,10%
same,bioavailability,after oral administration,1%
